This note sets out measurements from ChEMBL document CHEMBL1156106 (J Med Chem, 2009).

One may read the Ki as the equilibrium dissociation constant of an inhibitor or competing ligand from its target. For orientation: ED50 means the midpoint of the dose-response relation.

Assay [1] concerns the target Sodium-dependent serotonin transporter (Homo sapiens, UniProt P31645). Description: biochemical. It counts as cell-based, HEK293.
In assay [2] the test system is Mus musculus. Description: Antidepressant activity in ip dosed mouse assessed as stimulation of locomotor activity. It counts as functional.
Assay [3] deals with Mus musculus. Briefly: Antidepressant activity in ip dosed mouse assessed as stimulation of locomotor activity relative to cocaine. It counts as functional.
Assay [4] deals with Mus musculus. Briefly: Antidepressant activity in ip dosed mouse assessed as time to reach peak stimulation of locomotor activity. Type of assay: functional.
The subject of assay [5] is Mus musculus. Briefly: Antidepressant activity in ip dosed mouse assessed as duration of locomotor activity. It counts as functional.
The subject of assay [6] is Rattus norvegicus. Briefly: Effect on behavioural activity in rat assessed as cocaine-induced lever response at 25 mg/kg, ip pretreated with cocaine for 45 mins by drug-discrimination studies. It counts as functional. The conditions noted are these: route intraperitoneal.
In assay [7] the test system is Rattus norvegicus. Description: Effect on behavioural activity in rat assessed as cocaine-induced lever response at 50 mg/kg, ip pretreated with cocaine for 45 mins by drug-discrimination studies. It counts as functional. Particulars: route intraperitoneal.
In assay [8] the test system is Rattus norvegicus. Briefly: Effect on behavioural activity in ip dosed rat assessed as cocaine-induced lever response pretreated with cocaine by drug-discrimination studies. Type of assay: functional.
Assay [9] concerns Rattus norvegicus. Description: Effect on behavioural activity in rat assessed as cocaine-induced lever response at 2.5 mg/kg, po pretreated with cocaine for 45 mins by drug-discrimination studies. Type of assay: functional.
Assay [10] has as its system Rattus norvegicus. Description: Effect on behavioural activity in rat assessed as cocaine-induced lever response at 2.5 mg/kg, po pretreated with cocaine for 90 mins by drug-discrimination studies. Type of assay: functional.
Assay [11] relates to Rattus norvegicus. Briefly: Effect on behavioural activity in rat assessed as cocaine-induced lever response at 2.5 mg/kg, po pretreated with cocaine for 180 mins by drug-discrimination studies. It counts as functional.
The subject of assay [12] is Rattus norvegicus. Briefly: Effect on behavioural activity in rat assessed as cocaine-induced lever response at 2.5 mg/kg, po pretreated with cocaine for 360 mins by drug-discrimination studies. Type of assay: functional.
Assay [13] has as its system Rattus norvegicus. Briefly: Effect on behavioural activity in rat assessed as cocaine-induced lever response at 5 mg/kg, po pretreated with cocaine for 45 mins by drug-discrimination studies. It counts as functional.
Assay [14] has as its system Rattus norvegicus. Briefly: Effect on behavioural activity in rat assessed as cocaine-induced lever response at 5 mg/kg, po pretreated with cocaine for 90 mins by drug-discrimination studies. Type of assay: functional.
Assay [15] relates to Rattus norvegicus. Description: Effect on behavioural activity in rat assessed as cocaine-induced lever response at 5 mg/kg, po pretreated with cocaine for 180 mins by drug-discrimination studies. Type of assay: functional.
Assay [16] has as its system Rattus norvegicus. Briefly: Effect on behavioural activity in rat assessed as cocaine-induced lever response at 5 mg/kg, po pretreated with cocaine for 360 mins by drug-discrimination studies. Type of assay: functional.
Assay [17] concerns Rattus norvegicus. Description: Effect on behavioural activity in rat assessed as cocaine-induced lever response at 10 mg/kg, po pretreated with cocaine for 45 mins by drug-discrimination studies. Type of assay: functional.
The subject of assay [18] is Rattus norvegicus. Briefly: Effect on behavioural activity in rat assessed as cocaine-induced lever response at 10 mg/kg, po pretreated with cocaine for 90 mins by drug-discrimination studies. Type of assay: functional.
Assay [19] concerns Rattus norvegicus. Briefly: Effect on behavioural activity in rat assessed as cocaine-induced lever response at 10 mg/kg, po pretreated with cocaine for 180 mins by drug-discrimination studies. Type of assay: functional.
Assay [20] relates to Rattus norvegicus. Briefly: Effect on behavioural activity in rat assessed as cocaine-induced lever response at 10 mg/kg, po pretreated with cocaine for 360 mins by drug-discrimination studies. It counts as functional.
Assay [21] has as its system Rattus norvegicus. Briefly: Effect on behavioural activity in rat assessed as cocaine-induced lever response at 25 mg/kg, po pretreated with cocaine for 45 mins by drug-discrimination studies. Type of assay: functional.
Assay [22] deals with Rattus norvegicus. Briefly: Effect on behavioural activity in rat assessed as cocaine-induced lever response at 25 mg/kg, po pretreated with cocaine for 90 mins by drug-discrimination studies. It counts as functional.
Assay [23] relates to Rattus norvegicus. Description: Effect on behavioural activity in rat assessed as cocaine-induced lever response at 25 mg/kg, po pretreated with cocaine for 180 mins by drug-discrimination studies. It counts as functional.
Assay [24] deals with Rattus norvegicus. Description: Effect on behavioural activity in rat assessed as cocaine-induced lever response at 25 mg/kg, po pretreated with cocaine for 360 mins by drug-discrimination studies. Type of assay: functional.
In assay [25] the test system is Rattus norvegicus. Description: Effect on behavioural activity in rat assessed as cocaine-induced lever response at 50 mg/kg, po pretreated with cocaine for 45 mins by drug-discrimination studies. Type of assay: functional.
Assay [26] concerns Rattus norvegicus. Briefly: Effect on behavioural activity in rat assessed as cocaine-induced lever response at 50 mg/kg, po pretreated with cocaine for 90 mins by drug-discrimination studies. Type of assay: functional.
Assay [27] concerns Rattus norvegicus. Description: Effect on behavioural activity in rat assessed as cocaine-induced lever response at 50 mg/kg, po pretreated with cocaine for 180 mins by drug-discrimination studies. It counts as functional.
Assay [28] deals with Rattus norvegicus. Description: Effect on behavioural activity in rat assessed as cocaine-induced lever response at 50 mg/kg, po pretreated with cocaine for 360 mins by drug-discrimination studies. Type of assay: functional.
Assay [29] relates to Rattus norvegicus. Description: Effect on behavioural activity in rat assessed as cocaine-induced lever response at 100 mg/kg, po pretreated with cocaine for 45 mins by drug-discrimination studies. It counts as functional.
The subject of assay [30] is Rattus norvegicus. Briefly: Effect on behavioural activity in rat assessed as cocaine-induced lever response at 100 mg/kg, po pretreated with cocaine for 90 mins by drug-discrimination studies. It counts as functional.
The test system of assay [31] is Rattus norvegicus. Description: Effect on behavioural activity in rat assessed as cocaine-induced lever response at 100 mg/kg, po pretreated with cocaine for 180 mins by drug-discrimination studies. It counts as functional.
For assay [32], the target named is Sodium-dependent noradrenaline transporter (Homo sapiens, UniProt P23975). Briefly: Displacement of [125I]RTI55 from cloned human NET expressed in HEK293 cells. Type of assay: cell-based. (Loss of bound radioactivity is the signal in a displacement assay; it reports binding, not function.)
Assay [33] concerns Rattus norvegicus. Description: Effect on behavioural activity in rat assessed as cocaine-induced lever response at 100 mg/kg, po pretreated with cocaine for 360 mins by drug-discrimination studies. Type of assay: functional.
For assay [34], the system named is Rattus norvegicus. Briefly: Effect on behavioural activity in rat assessed as cocaine-induced lever response at 200 mg/kg, po pretreated with cocaine for 45 mins by drug-discrimination studies. It counts as functional.
Assay [35] deals with Rattus norvegicus. Description: Effect on behavioural activity in rat assessed as cocaine-induced lever response at 200 mg/kg, po pretreated with cocaine for 90 mins by drug-discrimination studies. It counts as functional.
Assay [36] relates to Rattus norvegicus. Description: Effect on behavioural activity in rat assessed as cocaine-induced lever response at 200 mg/kg, po pretreated with cocaine for 180 mins by drug-discrimination studies. It counts as functional.
The subject of assay [37] is Rattus norvegicus. Description: Effect on behavioural activity in rat assessed as cocaine-induced lever response at 200 mg/kg, po pretreated with cocaine for 360 mins by drug-discrimination studies. It counts as functional.
Assay [38] has as its system Rattus norvegicus. Description: Effect on behavioural activity in po dosed rat assessed as cocaine-induced lever response pretreated with cocaine by drug-discrimination studies. Type of assay: functional.
The subject of assay [39] is Rattus norvegicus. Description: Effect on behavioural activity in rat assessed as cocaine-induced lever response at 2.5 mg/kg, ip pretreated with cocaine for 30 mins by drug-discrimination studies. Type of assay: functional. Particulars: route intraperitoneal.
Assay [40] concerns Rattus norvegicus. Briefly: Effect on behavioural activity in rat assessed as cocaine-induced lever response at 5 mg/kg, ip pretreated with cocaine for 30 mins by drug-discrimination studies. It counts as functional. Particulars: route intraperitoneal.
The subject of assay [41] is Rattus norvegicus. Briefly: Effect on behavioural activity in rat assessed as cocaine-induced lever response at 10 mg/kg, ip pretreated with cocaine for 30 mins by drug-discrimination studies. It counts as functional. The conditions noted are these: route intraperitoneal.
Assay [42] concerns Rattus norvegicus. Description: Effect on behavioural activity in rat assessed as cocaine-induced lever response at 25 mg/kg, ip pretreated with cocaine for 30 mins by drug-discrimination studies. It counts as functional. Particulars: route intraperitoneal.

The structures appear in SMILES notation.

Sodium-dependent serotonin transporter, sequence (P31645 whole entry): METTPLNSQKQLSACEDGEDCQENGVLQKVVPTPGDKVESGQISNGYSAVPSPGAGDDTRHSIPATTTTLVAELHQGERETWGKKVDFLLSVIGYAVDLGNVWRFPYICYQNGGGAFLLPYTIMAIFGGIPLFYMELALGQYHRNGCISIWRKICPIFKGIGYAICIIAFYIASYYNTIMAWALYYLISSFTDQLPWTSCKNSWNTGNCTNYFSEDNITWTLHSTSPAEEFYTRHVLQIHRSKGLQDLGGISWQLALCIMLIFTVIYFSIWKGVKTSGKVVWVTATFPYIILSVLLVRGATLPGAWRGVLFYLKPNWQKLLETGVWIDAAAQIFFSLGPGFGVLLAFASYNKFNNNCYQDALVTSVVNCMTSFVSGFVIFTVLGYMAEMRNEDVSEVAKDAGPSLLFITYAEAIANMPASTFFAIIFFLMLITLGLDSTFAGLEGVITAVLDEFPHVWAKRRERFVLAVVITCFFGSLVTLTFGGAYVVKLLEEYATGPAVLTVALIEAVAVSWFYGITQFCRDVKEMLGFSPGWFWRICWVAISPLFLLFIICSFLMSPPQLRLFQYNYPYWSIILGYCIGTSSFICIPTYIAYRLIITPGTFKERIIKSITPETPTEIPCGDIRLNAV
Sodium-dependent noradrenaline transporter, sequence (P23975 whole entry): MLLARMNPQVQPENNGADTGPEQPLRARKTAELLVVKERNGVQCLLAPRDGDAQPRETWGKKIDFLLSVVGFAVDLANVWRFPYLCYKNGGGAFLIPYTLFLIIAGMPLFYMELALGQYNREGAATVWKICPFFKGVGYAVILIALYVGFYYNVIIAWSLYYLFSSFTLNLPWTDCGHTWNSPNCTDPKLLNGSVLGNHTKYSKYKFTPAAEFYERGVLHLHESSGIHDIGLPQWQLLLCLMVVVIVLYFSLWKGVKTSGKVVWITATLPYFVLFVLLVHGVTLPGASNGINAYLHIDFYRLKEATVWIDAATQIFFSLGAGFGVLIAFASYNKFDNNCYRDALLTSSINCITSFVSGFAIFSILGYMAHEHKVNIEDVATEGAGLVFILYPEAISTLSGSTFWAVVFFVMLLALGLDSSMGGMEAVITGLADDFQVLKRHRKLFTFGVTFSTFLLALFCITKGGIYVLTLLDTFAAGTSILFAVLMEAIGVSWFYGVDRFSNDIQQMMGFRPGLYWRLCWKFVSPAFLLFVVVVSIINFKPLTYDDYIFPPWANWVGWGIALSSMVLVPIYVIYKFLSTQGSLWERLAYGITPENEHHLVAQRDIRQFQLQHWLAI

Consider `CCCCCC(NC(C)(C)C)C(=O)c1cccc(Cl)c1` (configuration not stated), for which the Ki in assay [1] is greater than 10 µM. The ED50 in [2] came out at 12.9 mg/kg. The figures for the Activity in assay [3], in assay [6] and in assay [7] were 90%, 1% and 50.9%, respectively. The “Time to peak locomotor stimulation” value in [4] was found to be 60 min. In addition, the Time in assay [5] is reported as 280 min.

For `CC(NC(C)(C)C)C(=O)c1cccc(Br)c1` (configuration not stated), the ED50 was found to be 39.6 mg/kg in [8], 13.5 mg/kg in assay [2] and 52.9 mg/kg in assay [38]. The Activity in [9] is given as 13%; in assay [10] it was 0%; in [11], 0%; in assay [12], 33%; in [13], 0%; in [14], 15%. The Activity in assay [15] is recorded as 0%; in assay [16], 7%; in assay [17], 0%; in assay [18], 0%; in [19], 0%; in [20] it was 0%. Also, the Activity in assay [21] is reported as 17%; in [22], 0%; in assay [23], 0%; in assay [24], 0%; in assay [25], 51%; in assay [26], 21%. In addition, the Activity came out at 0% in [27]; 0% in [28]; 67% in assay [29]; 56% in assay [30]; 34% in [31]; 57% in assay [3]. The Activity in [33] worked out at 14%; in assay [34], 100%; in assay [35], 100%; in assay [36] it was 5%; in assay [37] it was 34%; in [39], 0.3%. The Activity in assay [40] came to 34.4%; in assay [41], 21%; in assay [42], 83.6%. For the same molecule, the Ki in assay [1] was greater than 10 µM; in assay [32] it was greater than 7.14 µM. Moreover, the “Time to peak locomotor stimulation” value in [4] came to 0 min. In assay [5], the Time is 90 min.
